ChEMBL document CHEMBL1201862, “PubChem BioAssay data set” (2004)
Active and inactive are the calls of the source.

Experiments:
Paired box protein Pax-8 = Paired box protein Pax-8 (Homo sapiens, UniProt Q06710); experiment: inhibitors of PAX8-driven TPO luciferase reporter, dose response, RMG-I cells, cherry-pick (AID 687027); format: functional, cell-based;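 also: luciferase reporter driven by Pax8 target thyroperoxidase promoter measured by SteadyGlo luminescence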
[1] = NIH:OVCAR-3 ovarian cancer cell cytotoxicity, dose response, PAX8 inhibitor project, plate reader, dry powder samples (AID 743044); format: functional, cell-based
[2] = IGROV1 ovarian cancer cell cytotoxicity, dose response, PAX8 inhibitor project, plate reader, dry powder samples (AID 743043); format: functional, cell-based; details: IGROV-1
[3] = cytotoxicity in OVCAR8 ovarian cancer cells, dose response, PAX8 project, cell-based, plate reader, dry powder samples (AID 743197); format: functional; details: OVCAR-8
HEK293 = experiment: cells; format: functional, cell-based; details: Homo sapiens
[4] = biological target: T1, Nuclear receptor subfamily 0 group B member 1 (Homo sapiens, UniProt P51843); experiment: Luminescence-based cell-based high throughput dose response assay for inhibitors of the orphan nuclear receptor subfamily 0, group B, member 1 (DAX1; NR0B1). [Related pubchem assays (depositor defined):AID504766, AID504790]; format: functional
T1 sequence (P51843 whole entry): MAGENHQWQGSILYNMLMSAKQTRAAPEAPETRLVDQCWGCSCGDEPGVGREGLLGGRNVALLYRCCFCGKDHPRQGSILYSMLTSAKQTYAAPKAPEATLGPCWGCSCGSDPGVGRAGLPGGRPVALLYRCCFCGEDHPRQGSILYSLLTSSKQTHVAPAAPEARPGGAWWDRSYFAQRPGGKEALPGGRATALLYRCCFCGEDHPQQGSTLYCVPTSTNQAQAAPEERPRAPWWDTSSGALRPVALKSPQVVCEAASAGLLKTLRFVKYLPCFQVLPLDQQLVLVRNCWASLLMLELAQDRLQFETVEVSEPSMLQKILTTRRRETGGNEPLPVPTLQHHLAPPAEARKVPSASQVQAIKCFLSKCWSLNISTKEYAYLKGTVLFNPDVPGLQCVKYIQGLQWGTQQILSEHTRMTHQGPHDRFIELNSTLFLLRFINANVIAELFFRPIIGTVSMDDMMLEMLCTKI

[5] = biological target: T2, Oxysterols receptor LXR-beta (Homo sapiens, UniProt P55055); format: functional, cell-based;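 also: agonist activity at LXR measured by a cell-based luminescence readout across a dose range, run as a counterscreen for daf-12 agonists; HEK293 cells with Gal4-LXR fusion and GAL4-driven luciferase reporter; potency for activation of Gal4-LXR reporter so compounds are agonists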
T2 sequence (P55055 whole entry): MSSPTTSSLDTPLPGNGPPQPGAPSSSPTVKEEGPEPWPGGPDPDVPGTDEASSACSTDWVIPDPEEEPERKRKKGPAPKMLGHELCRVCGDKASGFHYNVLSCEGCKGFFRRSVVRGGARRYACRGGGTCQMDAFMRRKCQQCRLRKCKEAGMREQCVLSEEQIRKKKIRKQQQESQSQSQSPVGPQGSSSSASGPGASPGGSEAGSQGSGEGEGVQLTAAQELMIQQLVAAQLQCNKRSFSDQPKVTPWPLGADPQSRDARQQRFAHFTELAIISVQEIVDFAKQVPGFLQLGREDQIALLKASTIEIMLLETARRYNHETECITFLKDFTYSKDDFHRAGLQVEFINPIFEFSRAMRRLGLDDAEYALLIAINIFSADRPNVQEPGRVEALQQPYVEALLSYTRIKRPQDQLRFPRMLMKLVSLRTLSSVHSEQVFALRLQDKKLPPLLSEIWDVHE

[6] = HEK293 cell cytotoxicity, dose response, cytotoxicity control, cherry-picks, set 5 (AID 1053117); format: functional, cell-based
[7] = T. cruzi growth inhibition in host cells, dose response, cell-based, plate reader, dry powder, set 2 (AID 652275); format: functional
cells [8] = format: functional, cell-based
cells [9] = format: functional, cell-based; remark: listed apart in the source
Protein Wnt-3a = Protein Wnt-3a (Mus musculus, UniProt P27467); experiment: Wnt3a-driven reporter signaling inhibition, dose response, selectivity assay for Gli-SUFU antagonist project, Wnt-LIGHT cells, luminescence (AID 651570); format: functional; details: read-out: IC50_Mean;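 also: Wnt-LIGHT reporter cells stimulated with conditioned medium from Wnt3a-producing cells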
Sequence of Protein Wnt-3a (P27467 whole entry): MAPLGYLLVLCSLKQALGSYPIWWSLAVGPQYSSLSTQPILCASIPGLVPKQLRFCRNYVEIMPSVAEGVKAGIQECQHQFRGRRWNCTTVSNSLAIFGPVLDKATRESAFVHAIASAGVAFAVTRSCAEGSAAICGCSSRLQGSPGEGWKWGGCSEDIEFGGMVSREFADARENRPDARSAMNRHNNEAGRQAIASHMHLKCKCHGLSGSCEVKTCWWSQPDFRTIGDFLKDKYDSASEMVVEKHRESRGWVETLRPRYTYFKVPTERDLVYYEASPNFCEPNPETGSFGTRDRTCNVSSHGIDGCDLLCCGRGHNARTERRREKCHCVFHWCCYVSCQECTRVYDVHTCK

Sequence of Paired box protein Pax-8 (Q06710 whole entry): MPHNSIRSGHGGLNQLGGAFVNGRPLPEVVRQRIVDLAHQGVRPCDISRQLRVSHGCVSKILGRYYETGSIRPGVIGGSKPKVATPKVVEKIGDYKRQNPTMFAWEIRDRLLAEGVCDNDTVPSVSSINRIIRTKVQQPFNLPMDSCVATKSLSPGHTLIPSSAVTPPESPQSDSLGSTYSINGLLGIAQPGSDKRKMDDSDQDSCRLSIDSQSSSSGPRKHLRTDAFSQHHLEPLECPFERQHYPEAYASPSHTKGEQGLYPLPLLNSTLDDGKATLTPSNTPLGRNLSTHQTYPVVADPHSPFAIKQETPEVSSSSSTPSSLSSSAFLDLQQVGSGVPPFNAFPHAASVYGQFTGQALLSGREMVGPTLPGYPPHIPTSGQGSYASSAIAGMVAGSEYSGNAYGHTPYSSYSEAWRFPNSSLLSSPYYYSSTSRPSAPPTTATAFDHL

With `C[C@@H]1CN([C@H](C)CO)C(=O)c2cc(NC(=O)Nc3ccccc3)ccc2O[C@@H](C)CCCCO[C@@H]1CN(C)Cc1ccc(C(F)(F)F)cc1` the AC50 (Paired box protein Pax-8) was 6.35 µM (active), the AC50 [1] was 28.6 µM (active) and the AC50 [2] was 51.4 µM (active). For the same compound, the AC50 [3] was 61.8 µM (active).

For `C[C@H](CO)N1C[C@H](C)[C@@H](CN(C)Cc2ccc(C(F)(F)F)cc2)OCCCC[C@H](C)Oc2ccc(NS(=O)(=O)c3ccc(Cl)cc3)cc2C1=O`, the AC50 (Paired box protein Pax-8) was 7.37 µM (active), the AC50 [1] was 14.5 µM (active) and the AC50 [2] was 21.7 µM (active). For the same compound, the AC50 [3] was 34.1 µM (active).

For `N#C/C(=N\Nc1ccc(Cl)cc1)C(=N)N1CCCCCC1`, the IC50 (HEK293) was > 0.833 µM (active), the IC50 [4] was > 67.5 µM (inactive) and the EC50 [5] was > 67.5 µM (inactive).

In the case of `C[C@H]1CN([C@@H](C)CO)C(=O)c2cc(-c3ccccc3)cnc2O[C@@H]1CN(C)C(=O)c1cccc(F)c1`, the AC50 [6] is reported as > 52 µM (inactive).

With `CN(C)CC#Cc1cccc(-c2nc(C(=O)NCCCN3CCOCC3)cc3c2[C@H](CCO)N([S+]([O-])C(C)(C)C)C3)c1` (some centres not stated) the AC50 [7] was 1.24 µM (active).

In the case of `CC(C)N1C[C@H](C)[C@@H](CN(C)Cc2ccc(Cl)cc2)Oc2c(cccc2-c2nnn(-c3ccncc3)n2)C1=O`, the AC50 [7] is reported as 0.12 µM (active).

In the case of `Oc1ccc(Cl)cc1/C=N/CCc1ccccc1`, the IC50 (cells [8]) is reported as 9.79 µM (active) and the EC50 (cells [9]) is reported as > 29.9 µM (inactive).

With `CCCn1c2c(c(=N)c3c1CCC3)CCCC2` the IC50 (Protein Wnt-3a) was 37 µM (inactive).
